In ChEMBL document CHEMBL4419169, “Novel Ferroportin Inhibitors” (2018):
Calls of active or inactive are those of the source. No cut-off for these calls is given here.

How the values were obtained:
Mus musculus [1] = assay: Prevention of iron overload in beta2-microglobulin deficient female mouse assessed as reduction in total liver iron accumulation at 60 mg/kg, po BID pre-dosed followed by exposure to iron-containing water and same regime was repeated for 14 days relative to control; assay type: functional; design: scale not given: the % may be the effect or the level left
Mus musculus [2] = assay: Disease modifying capacity in mouse model of transfusion-independent beta-thalassemia intermedia assessed as prevention of liver [58Fe] loading at 60 mg/kg, po BID for 46 days relative to control; assay type: functional
Mus musculus [3] = assay: Induction of hypoferremia in wild type C57BL/6 mouse assessed as decrease in serum iron levels at 30 mg/kg, po measured after 3 hrs post dose; assay type: functional; design: scale not given: the % may be the effect or the level left
Rattus norvegicus [4] = assay: Prevention of iron absorption in anemic Wistar rat model of iron absorption assessed as inhibition of increase in serum iron at 100 mg/kg, po pre-dosed 1 hr before ferrous sulfate dosing and measured 3 hours after iron dosing; assay type: functional
Mus musculus [5] = assay: Disease modifying capacity in mouse model of transfusion-independent beta-thalassemia intermedia assessed as decrease in [58Fe] spleen iron content at 60 mg/kg, po BID for 46 days relative to control; assay type: functional; design: scale not given: the % may be the effect or the level left
Mus musculus [6] = assay: Disease modifying capacity in mouse model of transfusion-independent beta-thalassemia intermedia assessed as increase in hematocrit levels at 60 mg/kg, po BID for 46 days relative to control; assay type: functional
Mus musculus [7] = assay: Prevention of iron overload in beta2-microglobulin deficient male mouse assessed as reduction in [58Fe] liver iron accumulation at 60 mg/kg, po BID pre-dosed followed by exposure to iron-containing water and same regime was repeated for 14 days relative to control; assay type: functional; design: scale not given: the % may be the effect or the level left
Mus musculus [8] = assay: Correction of anemia in mouse model of transfusion-independent beta-thalassemia intermedia assessed as hemoglobin levels at 60 mg/kg, po BID for 46 days and measured at day 20 to 48 (reference value: 70 to 80 g/L); assay type: functional
Mus musculus [9] = assay: Disease modifying capacity in mouse model of transfusion-independent beta-thalassemia intermedia assessed as decrease in blood reticulocyte counts at 60 mg/kg, po BID for 46 days relative to control; assay type: functional; design: scale not given: the % may be the effect or the level left
Mus musculus [10] = assay: Prevention of hyperferremia in iron overloaded beta2-microglobulin deficient female mouse assessed as reduction in serum iron level at 60 mg/kg, po measured after 1 hr relative to control; assay type: functional; design: scale not given: the % may be the effect or the level left
Mus musculus [11] = assay: Prevention of iron overload in beta2-microglobulin deficient female mouse assessed as reduction in [58Fe] liver iron accumulation at 60 mg/kg, po BID pre-dosed followed by exposure to iron-containing water and same regime was repeated for 14 days relative to control; assay type: functional; design: scale not given: the % may be the effect or the level left
[12] = target: T1, Ferroportin (Mus musculus) (UniProt Q9JHI9); assay: Inhibition of ferroportin in mouse J774 cells assessed as induce ferroportin ubiquitination and degradation at […] incubated for 10 mins by immunoprecipitation assay; assay type: cell-based
T1 sequence (whole entry): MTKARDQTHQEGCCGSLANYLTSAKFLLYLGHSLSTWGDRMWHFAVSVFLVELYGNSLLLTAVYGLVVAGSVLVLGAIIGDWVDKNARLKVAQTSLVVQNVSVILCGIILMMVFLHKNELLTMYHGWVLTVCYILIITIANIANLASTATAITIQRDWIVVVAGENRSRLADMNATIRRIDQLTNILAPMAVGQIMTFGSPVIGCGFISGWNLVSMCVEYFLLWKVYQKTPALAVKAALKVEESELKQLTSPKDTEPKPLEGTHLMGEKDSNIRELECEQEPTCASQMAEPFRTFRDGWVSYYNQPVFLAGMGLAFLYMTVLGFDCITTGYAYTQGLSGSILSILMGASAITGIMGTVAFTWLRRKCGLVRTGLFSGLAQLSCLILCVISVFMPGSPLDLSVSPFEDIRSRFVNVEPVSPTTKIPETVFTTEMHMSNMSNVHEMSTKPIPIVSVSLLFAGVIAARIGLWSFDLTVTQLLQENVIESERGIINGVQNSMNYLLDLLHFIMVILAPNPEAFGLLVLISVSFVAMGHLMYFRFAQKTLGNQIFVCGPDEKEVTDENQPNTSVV

Mus musculus [13] = assay: Prevention of iron overload in beta2-microglobulin deficient female mouse assessed as increase in spleen iron accumulation at 60 mg/kg, po BID pre-dosed followed by exposure to iron-containing water and same regime was repeated for 14 days relative to control; assay type: functional
Mus musculus [14] = assay: Induction of hypoferremia in wild type C57BL/6 mouse assessed as decrease in serum iron levels at 10 mg/kg, po measured after 3 hrs post dose; assay type: functional; design: scale not given: the % may be the effect or the level left
Mus musculus [15] = assay: Disease modifying capacity in mouse model of transfusion-independent beta-thalassemia intermedia assessed as decrease in leukocyte counts level at 20 mg/kg, po BID for 46 days relative to control; assay type: functional; design: scale not given: the % may be the effect or the level left
Mus musculus [16] = assay: Disease modifying capacity in mouse model of transfusion-independent beta-thalassemia intermedia assessed as increase in hematocrit levels at 20 mg/kg, po BID for 46 days relative to control; assay type: functional
Rattus norvegicus [17] = assay: Prevention of iron absorption in anemic Wistar rat model of iron absorption assessed as inhibition of increase in serum iron at 10 mg/kg, po pre-dosed 1 hr before ferrous sulfate dosing and measured 3 hours after iron dosing; assay type: functional
[18] = target: T1, Ferroportin (Mus musculus); assay: Inhibition of ferroportin in mouse J774 cells assessed as induce ferroportin ubiquitination and degradation at […] incubated for 120 mins by immunoprecipitation assay; assay type: cell-based
Mus musculus [19] = assay: Prevention of hyperferremia in iron overloaded beta2-microglobulin deficient male mouse assessed as reduction in serum iron level at 60 mg/kg, po measured after 1 hr relative to control; assay type: functional; design: scale not given: the % may be the effect or the level left
Mus musculus [20] = assay: Prevention of iron overload in beta2-microglobulin deficient male mouse assessed as reduction in total liver iron accumulation at 60 mg/kg, po BID pre-dosed followed by exposure to iron-containing water and same regime was repeated for 14 days relative to control; assay type: functional; design: scale not given: the % may be the effect or the level left
Mus musculus [21] = assay: Disease modifying capacity in mouse model of transfusion-independent beta-thalassemia intermedia assessed as decrease in blood reticulocyte counts at 20 mg/kg, po BID for 46 days relative to control; assay type: functional; design: scale not given: the % may be the effect or the level left
Mus musculus [22] = assay: Disease modifying capacity in mouse model of transfusion-independent beta-thalassemia intermedia assessed as decrease in [58Fe] spleen iron content at 20 mg/kg, po BID for 46 days relative to control; assay type: functional; design: scale not given: the % may be the effect or the level left
Mus musculus [23] = assay: Prevention of hyperferremia in iron overloaded beta2-microglobulin deficient mouse assessed as reduction in serum iron level at 50 mg/kg, po measured after 3 hrs relative to control; assay type: functional, organism-based
Mus musculus [24] = assay: Disease modifying capacity in mouse model of transfusion-independent beta-thalassemia intermedia assessed as prevention of liver [58Fe] loading at 20 mg/kg, po BID for 46 days relative to control; assay type: functional
Mus musculus [25] = assay: Disease modifying capacity in mouse model of transfusion-independent beta-thalassemia intermedia assessed as increase in blood erythrocyte counts at 60 mg/kg, po BID for 46 days relative to control; assay type: functional
Rattus norvegicus [26] = assay: Prevention of iron absorption in anemic Wistar rat model of iron absorption assessed as inhibition of increase in serum iron at 30 mg/kg, po pre-dosed 1 hr before ferrous sulfate dosing and measured 3 hours after iron dosing; assay type: functional
Mus musculus [27] = assay: Prevention of iron overload in beta2-microglobulin deficient male mouse assessed as increase in spleen iron accumulation at 60 mg/kg, po BID pre-dosed followed by exposure to iron-containing water and same regime was repeated for 14 days relative to control; assay type: functional
Mus musculus [28] = assay: Disease modifying capacity in mouse model of transfusion-independent beta-thalassemia intermedia assessed as increase in blood erythrocyte counts at 20 mg/kg, po BID for 46 days relative to control; assay type: functional
Mus musculus [29] = assay: Induction of hypoferremia in wild type C57BL/6 mouse assessed as decrease in serum iron levels at 100 mg/kg, po measured after 3 hrs post dose; assay type: functional; design: scale not given: the % may be the effect or the level left
Mus musculus [30] = assay: Disease modifying capacity in mouse model of transfusion-independent beta-thalassemia intermedia assessed as decrease in relative spleen weight at 60 mg/kg, po BID for 46 days relative to control; assay type: functional; design: scale not given: the % may be the effect or the level left

For `Cl.Cl.Cl.O=C(NCc1ncccc1F)c1csc(CCNCc2nc3ccccc3[nH]2)n1`, the Activity (Mus musculus [1]) was 66 - 67%, the Activity (Mus musculus [2]) was 48% and the Activity (Mus musculus [3]) was 30%. It also gave an inhibition in vivo at 100 mg/kg (Rattus norvegicus [4]) of 97%, an Activity (Mus musculus [5]) of 51% and an Activity (Mus musculus [6]) of 1%. The Activity (Mus musculus [7]) was 81 - 95%, the Activity (Mus musculus [8]) was 13 g/L and the Activity (Mus musculus [9]) was 43%. For the same compound, the Activity (Mus musculus [10]) was 32 - 58%, the Activity (Mus musculus [11]) was 67 - 80% and the inhibition [12] was “Active”. For the same compound, the Activity (Mus musculus [13]) was 9 - 85%, the Activity (Mus musculus [14]) was 10% and the Activity (Mus musculus [15]) was 0%. For the same compound, the Activity (Mus musculus [16]) was 0%, the inhibition in vivo at 10 mg/kg (Rattus norvegicus [17]) was 32% and the inhibition [18] was “Active”. For the same compound, the Activity (Mus musculus [19]) was 10 - 47%, the Activity (Mus musculus [20]) was 69 - 85% and the Activity (Mus musculus [21]) was 19%. For the same compound, the Activity (Mus musculus [22]) was 19%, the Activity (Mus musculus [23]) was “Active” and the Activity (Mus musculus [24]) was 20%. The Activity (Mus musculus [25]) was 22%, the inhibition in vivo at 30 mg/kg (Rattus norvegicus [26]) was 53% and the Activity (Mus musculus [27]) was 24 - 36%. For the same compound, the Activity (Mus musculus [28]) was 2%, the Activity (Mus musculus [29]) was 50% and the Activity (Mus musculus [30]) was 48%.
